pIC50, pKi: −log10 of the molar value. Activity calls are given as the source filed them. The calls are words filed in the database; no cut-off is given here.
What was measured:
HeLa = assay: Cytotoxicity against human HeLa cells; format: functional, cell-based
[1] = molecular target: T1, 5-hydroxytryptamine receptor 1A (Homo sapiens) (UniProt P08908); assay: Inhibition of 5HT1A receptor at 25 uM
T1 sequence (whole entry): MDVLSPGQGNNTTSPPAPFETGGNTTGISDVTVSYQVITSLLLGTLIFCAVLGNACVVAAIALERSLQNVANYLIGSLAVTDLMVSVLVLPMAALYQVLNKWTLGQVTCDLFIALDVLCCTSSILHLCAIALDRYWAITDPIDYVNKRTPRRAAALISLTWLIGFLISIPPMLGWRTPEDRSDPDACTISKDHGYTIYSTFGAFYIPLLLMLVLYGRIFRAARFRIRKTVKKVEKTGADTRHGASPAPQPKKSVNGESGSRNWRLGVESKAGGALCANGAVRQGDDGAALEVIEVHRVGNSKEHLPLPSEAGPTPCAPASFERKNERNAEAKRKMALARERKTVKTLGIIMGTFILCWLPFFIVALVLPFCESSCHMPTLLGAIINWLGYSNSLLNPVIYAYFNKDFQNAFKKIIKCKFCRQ

[2] = molecular target: 5-hydroxytryptamine receptor 2B (Homo sapiens, UniProt P41595); assay: Inhibition of human 5HT2B receptor expressed in cos-7 cells assessed as [3H]5-HT […] after 120 mins; format: cell-based
5-hydroxytryptamine receptor 2B, sequence (P41595 whole entry): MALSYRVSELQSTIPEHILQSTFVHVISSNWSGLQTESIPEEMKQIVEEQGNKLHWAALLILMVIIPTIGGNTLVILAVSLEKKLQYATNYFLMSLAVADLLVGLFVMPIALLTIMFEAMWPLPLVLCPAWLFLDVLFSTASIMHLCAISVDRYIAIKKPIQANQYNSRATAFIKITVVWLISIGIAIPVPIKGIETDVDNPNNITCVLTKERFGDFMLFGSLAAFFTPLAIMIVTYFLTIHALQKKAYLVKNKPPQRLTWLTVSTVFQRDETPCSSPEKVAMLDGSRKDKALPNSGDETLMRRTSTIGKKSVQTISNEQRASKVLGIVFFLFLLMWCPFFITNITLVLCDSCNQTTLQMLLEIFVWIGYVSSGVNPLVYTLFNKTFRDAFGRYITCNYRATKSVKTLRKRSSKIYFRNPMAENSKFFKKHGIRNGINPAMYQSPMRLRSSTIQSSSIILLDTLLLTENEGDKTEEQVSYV

[3] = molecular target: T2, 5-hydroxytryptamine receptor 3A (Homo sapiens) (UniProt P46098); assay: Inhibition of 5HT3 receptor at 25 uM
T2 sequence (whole entry): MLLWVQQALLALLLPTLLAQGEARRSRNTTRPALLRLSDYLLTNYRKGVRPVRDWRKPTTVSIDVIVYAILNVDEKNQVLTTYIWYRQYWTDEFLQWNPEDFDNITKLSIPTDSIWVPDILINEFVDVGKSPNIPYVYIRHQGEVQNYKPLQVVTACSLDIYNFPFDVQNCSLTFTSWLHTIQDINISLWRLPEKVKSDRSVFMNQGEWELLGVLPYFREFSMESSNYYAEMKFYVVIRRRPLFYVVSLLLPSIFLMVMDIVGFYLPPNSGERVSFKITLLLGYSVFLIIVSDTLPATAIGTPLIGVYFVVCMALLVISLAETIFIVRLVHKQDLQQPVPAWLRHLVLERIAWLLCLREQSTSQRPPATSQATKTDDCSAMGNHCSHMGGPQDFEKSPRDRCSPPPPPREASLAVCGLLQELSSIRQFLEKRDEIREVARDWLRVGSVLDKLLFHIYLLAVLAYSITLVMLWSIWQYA

Row | SMILES | pIC50 (HeLa) | inhibition [1] | pIC50 [2] | pKi [2] | inhibition [3]
1 | CC/C=C1\C[C@H]2CNc3c(OC)cccc3C(=O)N2C1 [USABAMYCIN A] | 3.97 | inactive | 4.91 | 5.10 | inactive
2 | CC/C=C1\C[C@H]2CNc3ccccc3C(=O)N2C1 [USABAMYCIN C] | 3.99 | inactive | 5.08 | 5.28 | inactive
3 | C/C=C1\C[C@H]2CNc3c(OC)cccc3C(=O)N2C1 [USABAMYCIN B] | 3.99 | inactive | 5.07 | 5.27 | inactive

Reference: ChEMBL document CHEMBL1921715, “Usabamycins A-C: new anthramycin-type analogues from a marine-derived actinomycete” (Bioorg Med Chem Lett, 2011)
